This is an account of results in patent US7947854B2, “Bis-cationic compounds and use thereof” (The University of Sydney, priority 2003, dated 2011).

“And” between values parts separate entries of the source, which are not always exact repeats. Equal values may be shown once.

Assay in all cases: In vitro antibacterial activity, NCCLS M7-A6
Common to all, as to assay type: cell-based

Assay [1] deals with MRSA (methicillin resistant S. aureus). To be noted: Staphylococcus aureus, read-out: MIC MRSA (methicillin resistant S. aureus). How it is done: (§1) Two bis-cationic compounds were tested for antibacterial activity. The assay used was that published by the National Committee for Clinical Laboratory Standards. 2003. Methods for Dilution Antimicrobial Susceptibility Tests for Bacteria That Grow Aerobically: Approved Standard—Sixth Edition. NCCLS document M7-A6. Villanova, Pa., USA.

In the next assay the test system is Escherichia coli 25922. How it is done: as §1
Assay [2] deals with Pseudomonas ariginosa 122. How it is done: as §1
Assay [3] has as its system Staphylococcus aureus 25923. As for the experimental part: as §1
In assay [4] the test system is Streptococcus pneumonia 49619. To be noted: Streptococcus pneumoniae. How it is done:
as §1

Assay [5] deals with VRE (Vancomycin resistant Enterococcus). How it is done: as §1

By MIC is commonly meant the smallest concentration in the dilution series that meets the test's criterion for growth inhibition. In the case of `CCCC[N+](CCCC)(CCCC)CCCCCCCCCCCC[N+](CCCC)(CCCC)CCCC` [1,12-Bis-(tributylammonium)dodecane dichloride], the minimum inhibitory concentration (MIC) was 3.3 µg/mL and 5.5 µM in assay [1]; 13.4 µg/mL and 22 µM against Escherichia coli 25922; 48 µg/mL and 80 µM in assay [2]; 3.3 µg/mL and 5.5 µM in assay [3]; 0.73 µg/mL and 1.2 µM in assay [4]; 1.6 µg/mL and 2.7 µM in assay [5].
